Here are results for 29 compounds from US10052306B2 (LUC THERAPEUTICS, INC., priority 2013, dated 2018).

pIC50: −log10 of the molar value. Like-named read-outs stand apart in the source and are kept apart here.

Assay [1] concerns the target NR1/NR2B (Homo sapiens (Human), UniProt Q05586+Q13224). The assay can be described thus: Cell assay: FDSS Ca2+ influx inhibition in HEK293 cells expressing NR1/NR2B.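 Further: Fluo-8 Ca2+ signal read on Hamamatsu FDSS 6000 after glutamate, glycine and Ca2+ challenge following 10 min compound preincubation, end/baseline fluorescence ratio compared with MK801 control.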 The note with it: Binned Activity.
Assay [2] addresses NR1/NR2B (Homo sapiens (Human), UniProt Q13224). The assay is described as above. The note with it: read-out: NR2B NAM IC50.
Where [3] appears, read: HEK293 cells expressing NR1/NR2B, Ca2+ influx, binned NR2B NAM IC50.
The mark [4] stands for this setting: HEK293 cells expressing NR1/NR2B, Ca2+ influx.

NR1/NR2B (Homo sapiens (Human), UniProt Q13224), sequence (Q13224 27-1484, other chains not shown): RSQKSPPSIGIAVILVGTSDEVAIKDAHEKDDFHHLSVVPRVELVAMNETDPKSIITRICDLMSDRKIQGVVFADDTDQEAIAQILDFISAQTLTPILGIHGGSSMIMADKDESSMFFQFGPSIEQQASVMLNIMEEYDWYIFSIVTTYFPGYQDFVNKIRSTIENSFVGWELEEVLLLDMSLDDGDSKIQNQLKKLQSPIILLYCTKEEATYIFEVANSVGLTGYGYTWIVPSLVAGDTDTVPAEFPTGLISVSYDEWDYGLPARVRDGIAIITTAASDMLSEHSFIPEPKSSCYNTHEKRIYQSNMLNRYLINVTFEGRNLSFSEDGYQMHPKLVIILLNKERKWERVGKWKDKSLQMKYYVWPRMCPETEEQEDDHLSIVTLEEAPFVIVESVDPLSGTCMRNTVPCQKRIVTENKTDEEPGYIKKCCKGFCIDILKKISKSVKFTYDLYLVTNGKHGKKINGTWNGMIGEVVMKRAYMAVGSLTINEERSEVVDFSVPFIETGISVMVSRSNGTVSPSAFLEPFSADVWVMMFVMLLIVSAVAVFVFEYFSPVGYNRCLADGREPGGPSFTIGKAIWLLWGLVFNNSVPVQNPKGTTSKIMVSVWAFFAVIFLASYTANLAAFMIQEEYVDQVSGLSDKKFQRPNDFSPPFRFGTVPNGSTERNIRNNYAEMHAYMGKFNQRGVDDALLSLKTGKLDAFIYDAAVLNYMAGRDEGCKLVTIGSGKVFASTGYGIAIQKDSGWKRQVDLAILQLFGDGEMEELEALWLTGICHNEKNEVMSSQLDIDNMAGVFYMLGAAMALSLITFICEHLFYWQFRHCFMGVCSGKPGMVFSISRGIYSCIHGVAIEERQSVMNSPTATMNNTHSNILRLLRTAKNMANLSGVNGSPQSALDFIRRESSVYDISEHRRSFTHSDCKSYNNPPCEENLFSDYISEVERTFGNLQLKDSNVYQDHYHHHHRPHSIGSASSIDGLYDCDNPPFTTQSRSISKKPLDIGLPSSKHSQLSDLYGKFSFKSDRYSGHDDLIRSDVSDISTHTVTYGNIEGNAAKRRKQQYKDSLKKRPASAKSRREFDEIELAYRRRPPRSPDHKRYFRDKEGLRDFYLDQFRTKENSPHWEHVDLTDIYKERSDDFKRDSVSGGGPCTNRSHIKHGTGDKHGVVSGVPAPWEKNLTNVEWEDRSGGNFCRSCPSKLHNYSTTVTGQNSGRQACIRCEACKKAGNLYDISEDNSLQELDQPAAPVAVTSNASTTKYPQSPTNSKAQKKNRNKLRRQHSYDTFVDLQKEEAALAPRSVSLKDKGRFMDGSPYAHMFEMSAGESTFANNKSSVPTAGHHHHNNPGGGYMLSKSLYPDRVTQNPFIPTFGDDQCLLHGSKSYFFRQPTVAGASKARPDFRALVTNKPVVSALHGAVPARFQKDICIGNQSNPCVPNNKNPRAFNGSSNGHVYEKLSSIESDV
NR1/NR2B (Homo sapiens (Human), UniProt Q05586+Q13224), sequence (Q13224 27-1484, other chains not shown): as above

Consider `COc1cccc(-c2ccc(C(=O)CN3C[C@@H]4C[C@@](O)(Cc5ccccc5)C[C@@H]4C3)cc2)c1` [Example 265, 2-((3aR,5r,6aS)-5-benzyl-5-hydroxyhexahydrocyclo-penta[c]pyrrol-2(1H)-yl)-1-(3′-methoxy-[1,1′-biphenyl]-4-yl)ethanone], for which the pIC50 at NR1/NR2B [1] (setting [3]) was under 5.00; at NR1/NR2B [2] (setting [4]), 5.00.

With `Cc1ccc(NC(=O)N2C[C@@H]3C[C@@](O)(c4ccccc4)C[C@@H]3C2)cc1` [Example 3, 5-hydroxy-N-(4-methylphenyl)-5-phenyl-octahydrocyclopenta[c] pyrrole-2-carboxamide], the pIC50 is under 5.00 against NR1/NR2B [1] (setting [3]) and 5.00 at NR1/NR2B [2].

Consider `O=C(CN1C[C@@H]2C[C@@](O)(Cc3ccc(F)cc3)C[C@@H]2C1)c1ccc(O)cn1` [Example 166, 2-((3aR,5r,6aS)-5-(4-fluorobenzyl)-5-hydroxyhexahydrocyclo-penta[c]pyrrol-2(1H)-yl)-1-(5-hydroxypyridin-2-yl)ethanone], for which the pIC50 is 5.00 to 6.00 on NR1/NR2B [1] (setting [3]) and 5.19 on NR1/NR2B [2] (setting [4]).

Take `O=C(Nc1cccc(Cl)c1)N1C[C@H]2C[C@@H](c3ccccc3)C[C@H]2C1` [Example 106, N-(3-chlorophenyl)-5-phenyl-octahydrocyclopenta[c] pyrrole-2-carboxamide]: the figures for the pIC50 against NR1/NR2B [1] (setting [3]) and on NR1/NR2B [2] (setting [4]) were under 5.00 and 5.00, respectively.

On to `O=C(Nc1ccc(O)cc1)N1C[C@H]2C[C@@H](c3ccccc3)C[C@H]2C1` [Example 100, N-(4-hydroxyphenyl)-5-phenyl-octahydrocyclopenta[c] pyrrole-2-carboxamide], for which the pIC50 was under 5.00 against NR1/NR2B [1] (setting [3]) and 5.00 on NR1/NR2B [2] (setting [4]).

Consider `COc1ccc(NC(=O)N2C[C@@H]3C[C@@](O)(c4ccccc4)C[C@@H]3C2)cc1` [Example 1, 5-hydroxy-N-(4-methoxyphenyl)-5-phenylhexahydrocyclopenta[c]pyrrole-2(1H)-carboxamide], for which the pIC50 against NR1/NR2B [1] (setting [3]) is under 5.00; on NR1/NR2B [2] (setting [4]) it was 5.00.

`COc1ccccc1CNC(=O)N1C[C@H]2C[C@@H](c3ccccc3)C[C@H]2C1` [Example 112, N-[(2-methoxyphenyl)methyl]-5-phenyl-octahydrocyclopenta[c] pyrrole-2-carboxamide]: the pIC50 against NR1/NR2B [1] (setting [3]) was under 5.00; on NR1/NR2B [2] (setting [4]), 5.00.

As to `Oc1ccc([C@H](O)CN2C[C@@H]3C[C@](O)(Cc4ccccc4)C[C@@H]3C2)cc1` [Example 292, (3aR,5S,6aS)-5-benzyl-2-((S)-2-hydroxy-2-(4-hydroxyphenyl)ethyl) octahydrocyclopenta [c]pyrrol-5-ol], the pIC50 is 5.00 to 6.00 against NR1/NR2B [1] (setting [3]) and 5.33 on NR1/NR2B [2] (setting [4]).

As for `O=C(CN1C[C@@H]2C[C@@](O)(CC3CCCCC3)C[C@@H]2C1)c1ccc(O)cc1` [Example 205, 2-[(3aR,5R,6aS)-5-(cyclohexylmethyl)-5-hydroxy-octahydrocyclopenta[c]pyrrol-2-yl]-1-(4-hydroxyphenyl)ethan-1-one], the pIC50 on NR1/NR2B [1] (setting [3]) is 6.00 to 7.00; on NR1/NR2B [2] (setting [4]), 6.46.

Consider `O=C(Nc1ccccc1)N1C[C@@H]2C[C@@](O)(Cc3ccccc3)C[C@@H]2C1` [Example 122, (3aR,5r,6aS)-5-benzyl-5-hydroxy-N-phenylhexahydrocyclo-penta[c]pyrrole-2(1H)-carboxamide], for which the pIC50 at NR1/NR2B [1] (setting [3]) was under 5.00; at NR1/NR2B [2] (setting [4]), 5.00.

In the case of `O=C(CN1C[C@@H]2C[C@@](O)(Cc3ccccc3)C[C@@H]2C1)c1cccc(-c2ccccc2)c1` [Example 268, 1-([1,1′-biphenyl]-3-yl)-2-((3aR,5r,6aS)-5-benzyl-5-hydroxyhexahydrocyclo-penta[c]pyrrol-2(1H)-yl)ethanone], the pIC50 on NR1/NR2B [1] (setting [3]) is under 5.00; on NR1/NR2B [2] (setting [4]) it was 5.00.

In the case of `COc1cccc([C@]2(O)C[C@H]3CN(C(=O)Nc4ccccc4)C[C@H]3C2)c1` [Example 29, 5-hydroxy-5-(3-methoxyphenyl)-N-phenyl-octahydrocyclopenta[c] pyrrole-2-carboxamide], the pIC50 against NR1/NR2B [1] (setting [3]) is under 5.00; at NR1/NR2B [2] (setting [4]), 5.00.

On to `O=C(CN1C[C@@H]2CN(Cc3ccccc3)C[C@@H]2C1)c1ccc(O)c(F)c1` [Example 340, 2-(5-benzylhexahydropyrrolo [3,4-c]pyrrol-2(1H)-yl)-1-(3-fluoro-4-hydroxyphenyl)ethanone], for which the pIC50 was under 5.00 against NR1/NR2B [1] (setting [3]) and 5.00 at NR1/NR2B [2] (setting [4]).

In the case of `O[C@@]1(c2ccc(F)cc2)C[C@H]2CN(c3ccccn3)C[C@H]2C1` [Example 80, 5-(4-fluorophenyl)-2-(pyridin-2-yl)-octahydrocyclopenta[c] pyrrol-5-ol], the pIC50 against NR1/NR2B [1] (setting [3]) is under 5.00; on NR1/NR2B [2] (setting [4]), 5.00.

For the compound `O=C(CN1C[C@@H]2C[C@@](O)(Cc3ccccc3)C[C@@H]2C1)c1ccc(-c2ccccc2)cc1` [Example 258, 1-([1,1′-biphenyl]-4-yl)-2-((3aR,5r,6aS)-5-benzyl-5-hydroxyhexahydrocyclo-penta[c]pyrrol-2(1H)-yl)ethanone], the values for the pIC50 at NR1/NR2B [1] (setting [3]) and on NR1/NR2B [2] (setting [4]) were under 5.00 and 5.00, respectively.

Consider `CC(C)(C)c1ccc([C@]2(O)C[C@H]3CN(C(=O)Nc4ccc(Cl)c(C(F)(F)F)c4)C[C@H]3C2)cc1` [Example 53], for which the pIC50 against NR1/NR2B [1] (setting [3]) was under 5.00; on NR1/NR2B [2] (setting [4]) it was 5.00.

Turning to `O=C(CN1C[C@@H]2C[C@@](O)(Cc3ccc(Cl)cc3)C[C@@H]2C1)c1ccc(O)cn1` [Example 218, 2-((3aR,5r,6aS)-5-(4-chlorobenzyl)-5-hydroxyhexaydrocyclo-penta[c]pyrrol-2(1H)-yl)-1-(5-hydroxypyridin-2-yl)ethanone], the pIC50 was 6.00 to 7.00 on NR1/NR2B [1] (setting [3]) and 6.43 on NR1/NR2B [2] (setting [4]).

With `O=C(CN1CC2(C1)CC(O)(Cc1ccccc1)C2)c1ccc(O)cc1` [Example 342, 2-(6-benzyl-6-hydroxy-2-azspiro[3.3]heptan-2-yl)-1-(4-hydroxyphenyl)ethanone], the values for the pIC50 against NR1/NR2B [1] (setting [3]) and at NR1/NR2B [2] (setting [4]) were 5.00 to 6.00 and 5.57, respectively.

Turning to `Oc1ccc(C(O)CCN2C[C@@H]3C[C@@](O)(c4ccccc4)C[C@@H]3C2)cc1` (stereo partly shown) [Example 98, 2-(3-hydroxy-3-(4-hydroxyphenyl)propyl)-5-phenyloctahydrocyclopen-ta[c]pyrrol-5-ol], the pIC50 on NR1/NR2B [1] (setting [3]) was under 5.00; at NR1/NR2B [2] (setting [4]), 5.00.

Regarding `O=C(Nc1cccc(C(F)(F)F)c1)N1C[C@H]2C[C@@H](c3ccccc3)C[C@H]2C1` [Example 105, 5-phenyl-N-[3-(trifluoromethyl)phenyl]-octahydrocyclopenta[c] pyrrole-2-carboxamide], the pIC50 was under 5.00 at NR1/NR2B [1] (setting [3]) and 5.00 at NR1/NR2B [2] (setting [4]).

Turning to `O=C(CN1C[C@@H]2C[C@@](O)(Cc3ccc(F)cc3F)C[C@@H]2C1)c1ccc(O)cc1` [Example 238, 2-(5-(2,4-difluorobenzyl)-5-hydroxyhexahydrocyclo-penta[c]pyrrol-2(1H)-yl)-1-(4-hydroxyphenyl)ethanone], the figures for the pIC50 at NR1/NR2B [1] (setting [3]) and at NR1/NR2B [2] (setting [4]) were over 7.00 and 7.29, respectively.

`O=C(CN1C[C@@H]2C[C@@](O)(Cc3ccccc3)C[C@@H]2C1)c1ccc2[nH]nnc2c1` [Example 167, 2-[(3aR,5R,6aS)-5-benzyl-5-hydroxy-octahydrocyclopenta[c]pyrrol-2-yl]-1-(1H-1,2,3-benzotriazol-5-yl)ethan-1-one]: the figures for the pIC50 at NR1/NR2B [1] (setting [3]) and on NR1/NR2B [2] (setting [4]) were under 5.00 and 5.00, respectively.

As for `O=C(CN1C[C@@H]2C[C@](O)(Cc3ccccc3)C[C@@H]2C1)c1ccc(O)cc1` [Example 290, 2-((3aR,5r,6aS)-5-benzyl-5-hydroxyhexahydrocyclo-penta[c]pyrrol-2(1H)-yl)-1-(4-hydroxyphenyl)ethanone], the values for the pIC50 against NR1/NR2B [1] (setting [3]) and on NR1/NR2B [2] (setting [4]) were over 7.00 and 7.12, respectively.

Turning to `O=C(COc1ccc(C(=O)CN2C[C@@H]3C[C@@](O)(Cc4ccc(F)cc4)C[C@@H]3C2)cc1F)c1ccc(O)c(F)c1` [Example 173, 2-(2-fluoro-4-(2-((3aR,5r,6aS)-5-(4-fluorobenzyl)-5-hydroxyhexahydrocyclo-penta[c]pyrrol-2(1H)-yl)acetyl)phenoxy)-1-(3-fluoro-4-hydroxyphenyl)ethanone], the figures for the pIC50 against NR1/NR2B [1] (setting [3]) and on NR1/NR2B [2] (setting [4]) were under 5.00 and 5.00, respectively.

On to `O=C(CN1C[C@@H]2C[C@@](O)(Cc3ccccc3)C[C@@H]2C1)c1ccc(-c2cccc(F)c2)cc1` [Example 261, 2-((3aR,5r,6aS)-5-benzyl-5-hydroxyhexahydrocyclo-penta[c]pyrrol-2(1H)-yl)-1-(3′-fluoro-[1,1′-biphenyl]-4-yl)ethanone], for which the values for the pIC50 against NR1/NR2B [1] (setting [3]) and on NR1/NR2B [2] (setting [4]) were under 5.00 and 5.00, respectively.

`Oc1ccc([C@H](O)CN2C[C@@H]3C[C@@](O)(Cc4ccccc4)C[C@@H]3C2)cc1` [Example 137, (3aR,5S,6aS)-5-benzyl-2-((S)-2-hydroxy-2-(4-hydroxyphenyl)ethyl)octa-hydrocyclopenta[c]pyrrol-5-ol]: the values for the pIC50 against NR1/NR2B [1] (setting [3]) and at NR1/NR2B [2] (setting [4]) were over 7.00 and 7.69, respectively.

As for `O=C(Nc1ccccc1C(F)(F)F)N1C[C@@H]2C[C@@](O)(Cc3ccccc3)C[C@@H]2C1` [Example 127, (3aR,5r,6aS)-5-benzyl-5-hydroxy-N-(2-(trifluoromethyl)phenyl) hexahydrocyclopenta[c] pyrrole-2(1H)-carboxamide], the pIC50 against NR1/NR2B [1] (setting [3]) was under 5.00; at NR1/NR2B [2] (setting [4]), 5.00.

As for `CC(C)(C)c1ccc([C@]2(O)C[C@H]3CN(C(=O)Nc4cccc(C(F)(F)F)c4)C[C@H]3C2)cc1` [Example 55, 5-(4-tert-butylphenyl)-5-hydroxy-N-[3-(trifluoromethyl)phenyl]-octahydrocyclopenta[c] pyrrole-2-carboxamide], the pIC50 was under 5.00 against NR1/NR2B [1] (setting [3]) and 5.00 at NR1/NR2B [2] (setting [4]).

Turning to `COc1ccc(C)cc1NC(=O)N1C[C@@H]2C[C@@](O)(c3ccccc3)C[C@@H]2C1` [Example 27, 5-hydroxy-N-(2-methoxy-5-methylphenyl)-5-phenyl-octahydrocyclopenta[c] pyrrole-2-carboxamide], the pIC50 is under 5.00 on NR1/NR2B [1] and 5.00 at NR1/NR2B [2].
